Patent US20150374673A1, “Combination Therapy for the Treatment of Nosocomial Pneumonia” (priority 2013, published 2015)
Where two headings read alike, the source gives them in different places.

Columns and labels:
P. aeruginosa = experiment: MIC, CLSI broth microdilution in CAMHB with 0-10% pulmonary surfactant (avibactam fixed at 4 μg/mL in combination); assay type: cell-based, Pseudomonas aeruginosa; details: Pseudomonas aeruginosa, read-out: MIC
Description: (§1) The bacterial strains used in this testing were part of the microbiological culture collection housed at AstraZeneca R&D Boston (AstraZeneca Research Collection, designated ARC). The panel of bacterial isolates used for this testing was comprised of five CLSI QC reference strains and the remainder were either recent clinical isolates expressing β-lactamases or isolates from the primary bacterial screening panels.
(§2) MIC values were determined using the CLSI broth microdilution methodology with slight variation. Stock compound mother plates were prepared and used to spot 2 μL aliquots of serial 2-fold drug dilutions to columns 1-11 of 96-well daughter plates using a Perkin-Elmer MiniTrak™ MultiPosition dispenser. […] An inoculum volume of 100 μL (5×10E^5 CFU/mL) in CAMHB containing 0, 1, 2.5, 5, or 10% pulmonary surfactant was added using a multichannel Finnpipette® to each well of the 96-well plate.
(§3) The minimum inhibitory concentration (MIC) values against each organism/drug combination were determined using broth microdilution methodology according to CLSI guidelines. The recommended reference bacterial strains for each test group and reference compounds were incorporated into each test. For Gram-negatives, the reference bacterial strains were Escherichia coli ATCC 25922, E. coli ATCC 35218, Klebsiella pneumoniae ATCC 700603, and Pseudomonas aeruginosa ATCC 27853. Staphylococcus aureus ATCC 29213 was the reference bacterial strain for the Gram-positives.
(§4) MIC values for individual isolates were read visually. The MICs for each compound or combination in pulmonary surfactant was compared to the compound or combination tested in CAMHB alone.

[1] = Protein binding, equilibrium dialysis chamber, LC-MS/MS; assay type: in vitro ADME
Description: Blood was separated from plasma using a cooled centrifuge. Samples were split and stored at −80° C.

E. coli = experiment: MIC, CLSI broth microdilution in CAMHB with 0-10% pulmonary surfactant (avibactam fixed at 4 μg/mL in combination); assay type: cell-based; details: Escherichia coli
Description: as §1, §2, §3, §4

With `CC(C)(O/N=C(\C(=O)N[C@@H]1C(=O)N2C(C(=O)[O-])=C(C[n+]3ccccc3)CS[C@H]12)c1csc(N)n1)C(=O)O` [ceftazidime, (6R,7R)-7-[[(2Z)-2-(2-amino-1,3-thiazol-4-yl)-2-(1-hydroxy-2-methyl-1-oxopropan-2-yl)oxyiminoacetyl]amino]-8-oxo-3-(pyridin-1-ium-1-ylmethyl)-5-thia-1-azabicyclo[4.2.0]oct-2-ene-2-carboxylate pentahydrate] as the molecule, how does the MIC (P. aeruginosa; ATCC27853, P. aeruginosa ARC3 (CLSI QC strain, ATCC 27853), surfactant 1%) read?
The MIC was 1 µg/mL.

What about the MIC (P. aeruginosa; ATCC27853, P. aeruginosa ARC3 (CLSI QC strain, ATCC 27853), surfactant 2.5%) of the same molecule?
Its MIC is 2 µg/mL.

What about the MIC (P. aeruginosa; ATCC27853, P. aeruginosa ARC3 (CLSI QC strain, ATCC 27853), surfactant 5%) of the same molecule?
The MIC was 1 µg/mL.

And the MIC (P. aeruginosa; ATCC27853, P. aeruginosa ARC3 (CLSI QC strain, ATCC 27853), surfactant 10%)?
The MIC was 2 µg/mL.

And the MIC (P. aeruginosa; ATCC27853, P. aeruginosa ARC3 (CLSI QC strain, ATCC 27853), surfactant 0%)?
The MIC was 1 µg/mL.

What about the MIC (P. aeruginosa; P. aeruginosa ARC2532 (Clinical isolate), surfactant 0%) of the same molecule?
The MIC was 2 µg/mL.

And the MIC (P. aeruginosa; P. aeruginosa ARC2532 (Clinical isolate), surfactant 1%)?
Its MIC is 2 µg/mL.

And the MIC (P. aeruginosa; P. aeruginosa ARC2532 (Clinical isolate), surfactant 2.5%)?
Its MIC is 2 µg/mL.

What about the MIC (P. aeruginosa; P. aeruginosa ARC2532 (Clinical isolate), surfactant 5%) of the same molecule?
The MIC was 2 µg/mL.

And the MIC (P. aeruginosa; P. aeruginosa ARC2532 (Clinical isolate), surfactant 10%)?
Its MIC is 2 µg/mL.

What about the MIC (P. aeruginosa; P. aeruginosa ARC2761 (Clinical isolate), surfactant 1%) of the same molecule?
Its MIC is 2 µg/mL.

And the MIC (P. aeruginosa; P. aeruginosa ARC2761 (Clinical isolate), surfactant 2.5%)?
The MIC was 1 µg/mL.

What about the MIC (P. aeruginosa; P. aeruginosa ARC2761 (Clinical isolate), surfactant 5%) of the same molecule?
The MIC was 2 µg/mL.

What about the MIC (P. aeruginosa; P. aeruginosa ARC2761 (Clinical isolate), surfactant 10%) of the same molecule?
The MIC was 2 µg/mL.

What about the MIC (P. aeruginosa; P. aeruginosa ARC3508 (derepressed AmpC), surfactant 0%) of the same molecule?
The MIC was 32 µg/mL.

What about the MIC (P. aeruginosa; P. aeruginosa ARC3508 (derepressed AmpC), surfactant 1%) of the same molecule?
The MIC was 32 µg/mL.

What about the MIC (P. aeruginosa; P. aeruginosa ARC3508 (derepressed AmpC), surfactant 2.5%) of the same molecule?
The MIC was 32 µg/mL.

And the MIC (P. aeruginosa; P. aeruginosa ARC3508 (derepressed AmpC), surfactant 5%)?
The MIC was 32 µg/mL.

And the MIC (P. aeruginosa; P. aeruginosa ARC3508 (derepressed AmpC), surfactant 10%)?
The MIC was 32 µg/mL.

What about the MIC (P. aeruginosa; PAO1, P. aeruginosa ARC545 (PAO1), surfactant 0%) of the same molecule?
The MIC was 1 µg/mL.

And the MIC (P. aeruginosa; PAO1, P. aeruginosa ARC545 (PAO1), surfactant 1%)?
The MIC was 1 µg/mL.

And the MIC (P. aeruginosa; PAO1, P. aeruginosa ARC545 (PAO1), surfactant 2.5%)?
The MIC was 1 µg/mL.

What about the MIC (P. aeruginosa; PAO1, P. aeruginosa ARC545 (PAO1), surfactant 5%) of the same molecule?
The MIC was 1 µg/mL.

And the MIC (P. aeruginosa; PAO1, P. aeruginosa ARC545 (PAO1), surfactant 10%)?
The MIC was 1 µg/mL.

And the MIC (P. aeruginosa; P. aeruginosa ARC2761 (Clinical isolate), surfactant 0%)?
Its MIC is 2 µg/mL.

And the fraction unbound [1]?
The fraction unbound was 0.9.

And the MIC (E. coli; ATCC25922, E. coli ARC4 (CLSI QC strain, ATCC 25922), surfactant 0%)?
Its MIC is 0.25 µg/mL.

And the MIC (E. coli; ATCC25922, E. coli ARC4 (CLSI QC strain, ATCC 25922), surfactant 1%)?
The MIC was 0.25 µg/mL.

And the MIC (E. coli; ATCC25922, E. coli ARC4 (CLSI QC strain, ATCC 25922), surfactant 2.5%)?
Its MIC is 0.25 µg/mL.

And the MIC (E. coli; ATCC25922, E. coli ARC4 (CLSI QC strain, ATCC 25922), surfactant 5%)?
Its MIC is 0.25 µg/mL.

What about the MIC (E. coli; ATCC25922, E. coli ARC4 (CLSI QC strain, ATCC 25922), surfactant 10%) of the same molecule?
Its MIC is 0.25 µg/mL.

And the MIC (E. coli; ATCC35218, E. coli ARC016 (ATCC 35218, TEM-1), surfactant 0%)?
Its MIC is 0.12 µg/mL.

And the MIC (E. coli; ATCC35218, E. coli ARC016 (ATCC 35218, TEM-1), surfactant 1%)?
The MIC was 0.12 µg/mL.

What about the MIC (E. coli; ATCC35218, E. coli ARC016 (ATCC 35218, TEM-1), surfactant 2.5%) of the same molecule?
The MIC was 0.12 µg/mL.

And the MIC (E. coli; ATCC35218, E. coli ARC016 (ATCC 35218, TEM-1), surfactant 5%)?
The MIC was 0.12 µg/mL.

And the MIC (E. coli; ATCC35218, E. coli ARC016 (ATCC 35218, TEM-1), surfactant 10%)?
Its MIC is 0.12 µg/mL.

What about the MIC (E. coli; E. coli ARC523 (W3110), surfactant 0%) of the same molecule?
Its MIC is 0.5 µg/mL.

And the MIC (E. coli; E. coli ARC523 (W3110), surfactant 1%)?
The MIC was 0.5 µg/mL.

And the MIC (E. coli; E. coli ARC523 (W3110), surfactant 2.5%)?
Its MIC is 0.25 µg/mL.

What about the MIC (E. coli; E. coli ARC523 (W3110), surfactant 5%) of the same molecule?
Its MIC is 0.5 µg/mL.

What about the MIC (E. coli; E. coli ARC523 (W3110), surfactant 10%) of the same molecule?
Its MIC is 0.5 µg/mL.

And the MIC (E. coli; E. coli ARC3666 (CTX-M-15, OXA-1/30, SHV-31, TEM-1), surfactant 0%)?
The MIC was 32 µg/mL.

What about the MIC (E. coli; E. coli ARC3666 (CTX-M-15, OXA-1/30, SHV-31, TEM-1), surfactant 1%) of the same molecule?
Its MIC is 32 µg/mL.

What about the MIC (E. coli; E. coli ARC3666 (CTX-M-15, OXA-1/30, SHV-31, TEM-1), surfactant 2.5%) of the same molecule?
Its MIC is 32 µg/mL.

What about the MIC (E. coli; E. coli ARC3666 (CTX-M-15, OXA-1/30, SHV-31, TEM-1), surfactant 5%) of the same molecule?
The MIC was 32 µg/mL.

What about the MIC (E. coli; E. coli ARC3666 (CTX-M-15, OXA-1/30, SHV-31, TEM-1), surfactant 10%) of the same molecule?
The MIC was 32 µg/mL.

What about the MIC (E. coli; E. coli ARC3690 (CTX-M-15, SHV-12), surfactant 0%) of the same molecule?
The MIC was 64 µg/mL.
